Source: PMC5063576, “High Potency VEGFRs/MET/FMS Triple Blockade by TAS-115 Concomitantly Suppresses Tumor Progression and Bone Destruction in Tumor-Induced Bone Disease Model with Lung Carcinoma Cells” (PLoS ONE, 2016)

Key:
[1] = test system: M-CSF dependent bone marrow macrophages (MDBMs); experiment: In vitro osteoclast differentiation assay (TRAP activity); assay type: cell-based, mouse; conditions: MDBMs with hM-CSF and rhsRANKL for 4 days
Description: To prepare macrophage colony-stimulating factor (M-CSF) dependent bone marrow macrophages (MDBMs), bone marrow cells were obtained from the femurs of male BALB/c mice (CLEA Japan) and adherent cells were cultured with human M-CSF (hM-CSF; 10000 U/mL) for 6 days. MDBMs were collected and cultured with hM-CSF (10000 U/mL) and recombinant human soluble RANKL (rhsRANKL)-GST (5 nM) for 4 days (25000 cells/well in a 96 well flat plate) for induction of differentiation into osteoclasts. Test compounds were then added to the culture media at the indicated concentration. TRAP activities were measured using the commercially available TRACP and ALP Assay Kit (TAKARA BIO INC).

[2] = test system: TRAP-positive osteoclasts at tumor-bone boundary; experiment: TRAP staining of A549-Luc-BM1-implanted tibiae, osteoclast number; assay type: in vivo, BALB/c nude mice; conditions: 2 weeks oral; TAS-115 200, cabozantinib 15, sunitinib 40, crizotinib 100 mg/kg, combination; vs control
Description: On day 15, the mice were euthanized by cervical dislocation under isoflurane anesthesia, and their tibiae were collected. For CD31 staining, frozen sections (3 μm thick) were prepared using Kawamoto’s film method. Purified Rat Anti-Mouse CD31 (1:100, BD Pharmingen^TM) was detected using Simple Stain^TM Mouse MAX PO (Rat) (Nichirei) and 3,3’-diaminobenzidine (Dako, Glostrup, Denmark). For Ki-67 and TRAP staining, formalin-fixed paraffin-embedded sections (2 μm thick) were prepared. Anti-human Ki-67 Rabbit Monoclonal Antibody (1:50, Epitomics) was detected using the EnVisionTM^+ System (Dako). TRAP staining was performed using the TRAP/ALP Stain Kit (Wako Pure chemical Industries, Ltd.). To quantify each staining, whole slides were scanned under 20× magnification with the Aperio Scan-Scope XT Slide Scanner (Aperio Technologies, Inc., CA). To quantify CD31-positive microvessels as microvessel density (MVD, number/mm^2), four fields of tumor area per section excluding bone and necrotic tissue were analyzed by using Image-Pro Plus (Media Cybernetics, Inc., Carlsbad, CA). […] Ki-67-positive cells and total tumor cells were counted by using Image-Pro Plus. The Ki-67 index is expressed as a percentage (the number of Ki-67-positive tumor cells / the total number of the tumor cells × 100). […] The boundary length was calculated by Image-Pro Plus. […]

[3] = test system: MET phosphorylation in MDBMs; experiment: In vitro MDBM signaling, rhHGF-induced MET phosphorylation; assay type: cell-based, mouse; conditions: rhHGF 100 ng/mL 10 min, Western blotting
Description: For analysis of the expression and phosphorylation levels of FMS, MET and VEGFR2, MDBMs were cultured with hM-CSF (20000 U/mL) for 4 days (400000 cells/dish in Suspension Culture Dishes (Corning Inc., NY). The phosphorylation levels of FMS and downstream signaling molecules were then analyzed in these MDBMs following incubation for 1 hr with test compounds at the indicated concentration. The phosphorylation of MET or VEGFR2 was analyzed in these MDBMs following stimulation with rhHGF (100 ng/mL, 10 min) or rhVEGF (100 ng/mL, 5 min), respectively. After incubation, the MDBMs were harvested, the cells were lysed and target signaling proteins were detected by immunoblotting. For analysis of VEGFR2 and its phosphorylated form, the lysate was immunoprecipiated with an anti-VEGFR antibody prior to immunoblotting.

[4] = test system: FMS phosphorylation in human acute monocytic THP-1 leukemia cells; experiment: M-CSF-induced FMS phosphorylation in THP-1 cells (immunoblotting); assay type: cell-based; conditions: 2 h, 120 min compound incubation, 30 ng/mL M-CSF, read-out: cellular IC50 against M-CSF-induced FMS phosphorylation
Description: Supplementary file pone.0164830.s005.tif: S5 Fig The inhibition of the FMS signaling pathway in human acute monocytic leukemia THP-1 cells by TAS-115. […] After incubation with the compounds for 120 min, THP-1 cells were stimulated with 30 ng/mL of M-CSF and lysed at 1 min post M-CSF stimulation. Specific proteins in the cell lysates were detected using immune blotting and were quantified using Multi Gauge Ver 3.2 (FUJIFILM). IC50 values were calculated using Xlfit 5.3.0.8 (CTC Life Science Corporation, Tokyo, Japan). (TIF) Click here for additional data file.

A549-Luc-BM1 cells = experiment: Proliferation of A549-Luc-BM1 cells (CellTiter-Glo); assay type: cell-based; conditions: Homo sapiens, 72 hr post drug addition, read-out: 50% growth inhibitory concentration (GI50) for A549-Luc-BM1 cells
Description: Supplementary file pone.0164830.s002.tif: S2 Fig The effect of TAS-115 on the proliferation of A549-Luc-BM1 cells. A549-Luc-BM1 cells were seeded on 96 well plates at a density of 10^3 cells/well in RPMI1640 containing 10% FBS. […] At 72 hr post drug addition, cell viability was determined using CellTiter-Glo^TM. The 50% growth inhibition (GI50) values were determined using SAS version 9.2. (TIF) Click here for additional data file.

VEGFR2 = VEGFR2 (Homo sapiens, UniProt P35968); experiment: In vitro kinase assay, VEGFR2; assay type: biochemical; conditions: assay as described previously [16]
VEGFR2, sequence (P35968 20-1356, species assumed): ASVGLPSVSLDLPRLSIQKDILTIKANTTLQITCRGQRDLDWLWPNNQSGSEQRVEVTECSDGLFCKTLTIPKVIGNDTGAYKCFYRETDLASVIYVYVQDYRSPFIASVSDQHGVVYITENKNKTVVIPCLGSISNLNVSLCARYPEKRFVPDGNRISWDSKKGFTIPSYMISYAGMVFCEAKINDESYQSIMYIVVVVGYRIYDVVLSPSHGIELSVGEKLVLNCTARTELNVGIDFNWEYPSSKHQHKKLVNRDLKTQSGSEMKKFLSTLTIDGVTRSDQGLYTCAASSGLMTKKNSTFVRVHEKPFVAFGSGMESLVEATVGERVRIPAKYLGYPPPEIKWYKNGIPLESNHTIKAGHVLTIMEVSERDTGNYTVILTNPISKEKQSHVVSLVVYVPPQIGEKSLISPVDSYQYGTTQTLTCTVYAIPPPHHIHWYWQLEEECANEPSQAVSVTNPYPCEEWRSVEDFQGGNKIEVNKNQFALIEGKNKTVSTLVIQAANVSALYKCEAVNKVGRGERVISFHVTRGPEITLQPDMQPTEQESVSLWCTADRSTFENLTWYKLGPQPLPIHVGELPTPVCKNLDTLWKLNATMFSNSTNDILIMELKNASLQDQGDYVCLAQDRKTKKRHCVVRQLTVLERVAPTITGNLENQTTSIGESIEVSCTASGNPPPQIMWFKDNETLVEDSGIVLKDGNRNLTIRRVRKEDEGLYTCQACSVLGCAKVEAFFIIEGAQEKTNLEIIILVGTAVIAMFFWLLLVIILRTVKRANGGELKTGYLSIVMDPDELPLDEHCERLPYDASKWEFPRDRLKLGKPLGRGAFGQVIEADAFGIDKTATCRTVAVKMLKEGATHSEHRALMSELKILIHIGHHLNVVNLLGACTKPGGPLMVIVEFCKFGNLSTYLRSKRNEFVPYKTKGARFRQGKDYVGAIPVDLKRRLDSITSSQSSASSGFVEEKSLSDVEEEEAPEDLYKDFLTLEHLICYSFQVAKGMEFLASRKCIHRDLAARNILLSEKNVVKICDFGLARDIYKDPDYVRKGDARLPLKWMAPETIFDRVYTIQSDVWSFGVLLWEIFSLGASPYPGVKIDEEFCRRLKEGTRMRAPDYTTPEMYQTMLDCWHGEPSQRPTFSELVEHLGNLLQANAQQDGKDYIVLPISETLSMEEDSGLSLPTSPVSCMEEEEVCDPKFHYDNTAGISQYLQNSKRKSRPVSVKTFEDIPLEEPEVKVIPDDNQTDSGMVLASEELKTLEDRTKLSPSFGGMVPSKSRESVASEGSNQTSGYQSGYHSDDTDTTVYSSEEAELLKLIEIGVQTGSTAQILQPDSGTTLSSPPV
Description: Enzyme inhibition studies were performed using LANCE® Ultra TR-FRET assay technology. Briefly, 0.03 μg/mL dephospho-rhFMS and 100 nM ULightTM-poly GT (4:1) (PerkinElmer) were mixed and incubated for 40 min at 25°C in 10 μL of reaction mixture containing 100 μM ATP, 15 mM tris (hydroxymethyl) aminomethane (Tris (pH 7.5)), 0.01% (v/v) Tween 20, 5 mM MgCl2, 2 mM dithiothreitol and various concentrations of the test compound. […] By referring to the TR-FRET signals of positive (no inhibitor) and negative (EDTA was added before the reaction was started) control wells, the percent inhibition of each well was calculated and the half-maximal inhibitory concentration (IC50) value was determined using a four-parameter sigmoidal equation. The assay of MET and VEGFR2 kinase activity was performed as described previously.

IC50 [4]: 12 nM
GI50 (A549-Luc-BM1 cells): 11200 nM
IC50 (VEGFR2): 30 nM
SMILES: CNC(=O)c1cc2c(Oc3ccc(NC(=S)NC(=O)Cc4ccccc4)cc3F)ccnc2cc1OC [TAS-115, 4-[2-fluoro-4-[[[(2-phenylacetyl)amino]thioxomethyl]amino]-phenoxy] -7-methoxy-N-methyl-6-quinolinecarboxamide]
concentration that potently inhibited / markedly affected RANKL and M-CSF-induced mouse osteoclast formation [1]: 0.3 µM
number of TRAP-positive osteoclasts at tumor-bone boundary [2]: significantly decreased
concentration inhibiting the phosphorylation of MET [3]: greater than 0.03 μM
